For four molecules, IC50 results are on record in paper PMC8471537, “Novel Coumarin-Thiadiazole Hybrids and Their Cu(II) and Zn(II) Complexes as Potential Antimicrobial Agents and Acetylcholinesterase Inhibitors” (International Journal of Molecular Sciences, 2021).

This experiment deals with Acetylcholinesterase (AChE; E.C. 3.1.1.7) from Electrophorus electricus (Electrophorus electricus, UniProt O42275). Briefly: Ellman assay, absorbance at […] nm. It is filed as biochemical. In general terms: Ellman's reagent forms a yellow product with free thiols.
Sequence of Acetylcholinesterase (AChE; E.C. 3.1.1.7) from Electrophorus electricus (O42275 24-633): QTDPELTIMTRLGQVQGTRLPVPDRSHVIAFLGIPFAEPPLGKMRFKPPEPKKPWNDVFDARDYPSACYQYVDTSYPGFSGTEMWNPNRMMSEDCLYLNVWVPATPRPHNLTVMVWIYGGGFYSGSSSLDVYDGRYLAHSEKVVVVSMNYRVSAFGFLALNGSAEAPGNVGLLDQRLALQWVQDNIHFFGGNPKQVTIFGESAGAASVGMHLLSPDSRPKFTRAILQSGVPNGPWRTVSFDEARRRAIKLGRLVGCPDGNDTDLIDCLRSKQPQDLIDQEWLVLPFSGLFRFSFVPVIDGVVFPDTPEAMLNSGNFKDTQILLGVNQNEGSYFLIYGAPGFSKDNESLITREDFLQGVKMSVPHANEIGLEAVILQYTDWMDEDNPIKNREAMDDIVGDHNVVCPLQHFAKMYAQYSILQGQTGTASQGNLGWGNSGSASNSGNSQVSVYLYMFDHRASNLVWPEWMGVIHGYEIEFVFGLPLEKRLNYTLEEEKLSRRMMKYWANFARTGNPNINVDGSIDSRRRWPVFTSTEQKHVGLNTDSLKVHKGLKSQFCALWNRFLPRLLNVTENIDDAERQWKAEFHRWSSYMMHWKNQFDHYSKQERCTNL
In the case of `Cc1cc(=O)oc2c(-c3nnc(Nc4ccccc4)s3)c(O)ccc12` [compound 5, 5], the IC50 turned out to be 0.299 ± 0.0194 µM.
Under `Cc1cc(=O)oc2c(-c3nnc(N)s3)c(O)ccc12` [compound 2, 2] stands 0.218 ± 0.0084 µM.
Under `CC(=O)Nc1nnc(-c2c(O)ccc3c(C)cc(=O)oc23)s1` [compound 4, 4] stands 0.181 ± 0.0123 µM; under `CNc1nnc(-c2c(O)ccc3c(C)cc(=O)oc23)s1` [compound 3, 3], 0.211 ± 0.0123 µM.

As usually defined, the IC50 is the concentration that gives 50% inhibition. A high value points to lower potency.
